Data as given in patent US7772208B2, “2′,3′-dideoxynucleoside analogues for the treatment or prevention of Flaviviridae infections” (Pharmasset, Inc., priority 2002, dated 2010).
Structures can show the parent of a compound that is named as a salt.

Columns and labels:
[1] = target: T1, NS5B enzyme (HCV polymerase, NS5Bt) (Hepatitis C virus genotype 1a, UniProt P27958); assay: HCV polymerase (RdRp) inhibition assay; type: biochemical; conditions: for inhibition when treated: FIG. 4; for change of inhibition with increase in manganese concentration: FIG. 5
T1 construct: added a methionine and alanine to the N terminus and truncated the C-terminal 21 amino acids, replacing them with a hexahistidine tag; hexahistidine (C); made in house; host or cells: E. coli BL21(DE3)pLysS, plasmid pRSK1 in pET32a
Excerpt: The HCV NS5B gene was amplified from a genotype 1A, clone, p134/pBRTM 2029-3011 (ΔAvrII). The primers used added a methionine and alanine to the N terminus and truncated the C-terminal 21 amino acids, replacing them with a hexahistidine tag, which allowed increased soluble product in E. coli and metal affinity purification. The PCR product was cloned into the pET32a expression construct (Novagen) at the NcoI and BamHI sites and the resultant plasmid (pRSK1) was sequenced by the Stanford PAN facility using standard methods. […] (DE3)pLysS cells (Novagen) were transformed by pRSK1 and grown at 37° C. to an optical density of 0.1, at which time the cells were switched to room temperature. At an optical density of 0.3-0.5, isopropyl-β-D-thiogalactopyanoside was added to a final concentration of 0.5 mM and the cells were harvested after 6 h. The cell pellet was frozen, thawed and resuspended in buffer containing 50 mM sodium phosphate pH 7.0, 10% glycerol, 0.3 M NaCl, 2 mM β-mercaptoethanol, 0.5% β-octyl-glucoside. The cell extract was sonicated, and cellular debris removed by centrifugation. The extract was incubated batch-wise with Talon metal affinity resin (Clontech), washed extensively with the above buffer, and then poured into a column for a stepwise imidazole elution. The polymerase, referred to as NS5Bt, eluted specifically between 70 mM and 250 mM imidazole and was ˜90% pure.
RdRp assays were a modification of the assays described in Kao et al. (Kao, C, C.; Yang, X.; Kline, A.; Wang, Q. M.; Barket, D.; Heinz, B. A. (2000) J. Virol. 74, 11121-11128). The template used allows for de novo synthesis and has its 3′ termini blocked by puromycin, which largely prevents the high molecular weight product from forming and allows for predominantly 24- and 25-nucleotide products to be seen. Each reaction contained 50 mM Hepes-NaOH pH 8.0, 0.65 μM template, 0.1 μM purified NS5Bt described above, 250 μM GTP, 5 μM UTP, 0.6 μM CTP, and 1 μM [αP32] ATP, 0.5 mM MnCl2, 7 mM MgCl2, 18 mM DTT, and the stated concentration of the analog. Reaction mixes were incubated at 27° C. for 45 min. Reactions were terminated by the addition of ⅕ the volume of 5× proteinase K mix (250 μg proteinase K/ml [Sigma, St Louis, Mo.], 375 mM Hepes-NaOH pH 8, 0.5% SDS, 25 mM EDTA) and incubated for 10 min at 37° C. Reactions were then precipitated with isopropanol, and glycogen as a carrier, and washed twice with 70% ethanol to remove salt. The RNA was resuspended in formamide loading buffer, heated to 65° C. for 3 min and loaded on a 20% acrylamide/7 M urea/TBE denaturing gel and separated by electrophoresis at 50° C. Quantification of bands was performed using Phosphoimager analysis.

HCV protease = conditions: SDS-PAGE and autoradiography assay; cited from earlier work

T1 sequence (P27958 2421-2990): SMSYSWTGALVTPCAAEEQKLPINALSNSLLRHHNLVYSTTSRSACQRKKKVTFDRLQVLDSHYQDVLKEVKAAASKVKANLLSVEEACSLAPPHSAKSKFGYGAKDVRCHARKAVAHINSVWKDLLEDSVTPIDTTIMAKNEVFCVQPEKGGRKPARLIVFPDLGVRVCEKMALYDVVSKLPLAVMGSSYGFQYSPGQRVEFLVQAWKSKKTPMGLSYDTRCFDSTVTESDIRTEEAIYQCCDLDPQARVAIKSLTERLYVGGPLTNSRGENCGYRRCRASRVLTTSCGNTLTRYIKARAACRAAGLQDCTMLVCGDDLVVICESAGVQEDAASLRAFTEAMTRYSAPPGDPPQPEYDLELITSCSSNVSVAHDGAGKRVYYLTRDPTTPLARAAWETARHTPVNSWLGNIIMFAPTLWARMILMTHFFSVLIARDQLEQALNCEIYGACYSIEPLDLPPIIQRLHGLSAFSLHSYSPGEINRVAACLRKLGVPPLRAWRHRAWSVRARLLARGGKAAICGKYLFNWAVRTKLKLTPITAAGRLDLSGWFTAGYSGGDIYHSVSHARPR

SMILES | inhibition when treated [1] | change of inhibition with increase in manganese concentration [1] | activity against HCV protease (HCV protease) | inhibition of NS5B enzyme ([1]; FIG. 2 and FIG. 3, triphosphate)
Nc1ccn([C@@H]2CC[C@H](CO)O2)c(=O)n1 [L-ddC, β-L-2′,3′-dideoxycytidine] | no inhibition | not affected |  | 
Nc1nc(=O)n([C@@H]2CC[C@H](CO)O2)cc1F [L-ddFC, β-L-2′,3′-Dideoxy-5-fluorocytidine] | dose-dependent inhibition | increase of inhibition |  | 
CCCC(=O)c1cc2c(c(O)c1C)C(=O)C(=O)c1c(O)cccc1-2 [Sch 68631] |  |  | micromolar activity | 
Nc1nc(=O)n([C@@H]2CC[C@H](COP(=O)(O)OP(=O)(O)OP(=O)(O)O)O2)cc1F [β-L-ddFC triphosphate, β-L-2′,3′-Dideoxy-5-fluorocytidine triphosphate, triethylammonium salt] |  |  |  | dose-dependent inhibition
